Legend:
[1] = molecular target: BRD4 (Homo sapiens, UniProt O60885); assay: BRD4 inhibition; type: biochemical
[2] = molecular target: T1, Bcl-2 (Homo sapiens, UniProt P10415); assay: BCL-2 TR-FRET, inhibition of Bcl-2 binding to a peptide ligand; details: at micromolar concentrations
T1 construct: purchased BPS Bioscience 50222
Procedure: BCL-2 TR-FRET. Inhibition of Bcl-2 binding to a peptide ligand was measured using the BCL-2 TR-FRET Assay Kit from BPS Bioscience (BPS Bioscience 50222). Briefly, the provided BCL TR-FRET assay buffer was diluted 1:3 with ultrapure Milli-Q water. The anti-His terbium-labeled donor and dye-labeled acceptor were each diluted 1:100 with diluted assay buffer. The BCL-2 peptide ligand was thawed on ice and diluted 1:40 with diluted assay buffer, and BCL-2 protein was diluted with diluted assay buffer to a working concentration of 1 ng/μL. Test compounds at the indicated final concentrations were prepared as stock 10% DMSO solutions in ultrapure Milli-Q water. The reaction was performed by combining 5 μL diluted donor. 5 μL diluted acceptor. 2 μL test compound. 5 μL diluted ligand, and 3 μL diluted protein in each well of the provided white, flat-bottom 384-well plate. Positive control reactions had 2 μL 10% DMSO in water in lieu of test compound. Negative control reactions had 2 μL 10% DMSO in water and 5 μL diluted assay buffer in lieu of test compound and diluted ligand. Reactions were incubated at room temperature for 3 hours, and fluorescent intensities were measured using a SpectraMax® M5 plate reader and manufacturer software (SoftMax Pro 6) with the following TR-FRET settings; for terbium-labeled donor emission, ex/em. 340/620 nm: lag time. 100 μs: integration time. 500 μs: for dye-acceptor emission, ex/em. 340/665 nm: lag time. 100 μs; integration time. 500 μs. The TR-FRET ratio. 665 nm emission/620 nm emission, was calculated for all reactions, and percentage activity was calculated by linearly interpolating the positive and negative control TR-FRET ratio values between relative activity values of 0) and 1. Experiments were performed in biological duplicate and repeated on independent occasions.

[3] = test system: late-passage IMR-90 cells; assay: Replicative senescence model, resazurin cell viability; type: cell-based, human; details: early- versus late-passage IMR-90 cells
Procedure: Cell culture. Human lung fibroblast (IMR-90) cells were obtained from ATCC (CCL-186) and passaged less than 10 times (less than 30 population doublings) for all experiments described in this example, with the exception of high-passage cells used in the model of replicative senescence (see the section on Replicative senescence below). Cells were cultured in growth media comprising Eagle's Minimum Essential Medium (EMEM: ATCC 30-2003) supplemented with 10% fetal bovine serum (FBS: Thermo Fisher 16140071) and 1% penicillin-streptomycin (Thermo Fisher 15070063). Cells were incubated in a humidity-controlled incubator at 37° C., with 5% CO2. Cells were detached using trypsin-EDTA (0.05%; Gibco 25300120).
Cells were then plated as described below.
Chemical screening. For all screening experiments. 99 μL of cells were plated into each well of a 96-well clear flat-bottom, black polystyrene tissue-culture-treated plate (Corning 3904) at a density of ˜10+ cells/well. Plates were incubated overnight for adhesion. The day after plating. […] After an additional 1 day of incubation, the fluorescence excitation/emission at 550/590 nm was read using a SpectraMaxR M3 plate reader and manufacturer software (SoftMax Pro R 6). […]
Calculation of cellular viability values in dose-response curves. […] For each sample, the fluorescence intensity value was normalized by the mean of two untreated control values. […]

[4] = molecular target: Bcl-XL (Homo sapiens, UniProt Q07817); assay: Bcl-XL TR-FRET; type: binding
Bcl-XL, sequence (Q07817 whole entry): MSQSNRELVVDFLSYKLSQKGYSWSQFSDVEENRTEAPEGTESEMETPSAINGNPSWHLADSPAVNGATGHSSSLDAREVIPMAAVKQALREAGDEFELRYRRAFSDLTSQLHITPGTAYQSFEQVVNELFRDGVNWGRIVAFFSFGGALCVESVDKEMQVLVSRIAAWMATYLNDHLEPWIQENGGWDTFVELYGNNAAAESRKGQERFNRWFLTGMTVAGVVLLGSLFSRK

[5] = test system: human red blood cells; assay: Hemolysis assay; type: cell-based; details: up to a final concentration of 100 μM; 1 h at 37° C.
Procedure: Hemolysis assay. Whole human blood containing EDTA (Innovative Resarch IWB1K2E) was centrifuged at 120×g at 4° C., for 5 min and resuspended in Dulbecco's PBS (DPBS: VWR 02-0119-0500). These washing steps were repeated until the supernatant was clear. Red blood cells were then resuspended in DPBS to 5×10^8 cells/mL, and 100 μL of cells was plated into each well of a 96-well clear round-bottom plate. Compounds were added to the indicated concentrations, and DMSO was used as a vehicle. Samples were incubated for 1 h at 37° C., without shaking, after which plates were centrifuged at 1500×g at room temperature for 5 min to pellet cells. 60 μL of the supernatant from each sample was then transferred to a 96-well clear flat-bottom plate, and the absorbance was read at 405 nm using a SpectraMax M3 plate reader to quantify the amount of soluble hemoglobin. Fractional hemolysis was determined by linearly interpolating absorbance values with respect to a positive control (saturation with 10% Triton X-100) and a negative control (1% DMSO vehicle). Results are depicted in FIG. 14.

[6] = molecular target: Mcl-1 (Homo sapiens, UniProt Q07820); assay: Mcl-1 TR-FRET; type: binding
Mcl-1, sequence (Q07820 whole entry, species assumed): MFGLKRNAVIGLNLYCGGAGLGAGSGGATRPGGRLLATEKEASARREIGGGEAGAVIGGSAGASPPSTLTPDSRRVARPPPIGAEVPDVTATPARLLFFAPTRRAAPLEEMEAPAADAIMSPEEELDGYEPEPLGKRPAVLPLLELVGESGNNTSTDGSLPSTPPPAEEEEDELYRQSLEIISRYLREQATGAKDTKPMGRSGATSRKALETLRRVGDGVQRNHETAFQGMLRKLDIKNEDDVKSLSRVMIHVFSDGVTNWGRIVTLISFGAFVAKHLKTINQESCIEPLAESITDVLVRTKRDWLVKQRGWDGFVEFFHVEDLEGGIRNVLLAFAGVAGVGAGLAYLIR

T1 sequence (P10415 whole entry): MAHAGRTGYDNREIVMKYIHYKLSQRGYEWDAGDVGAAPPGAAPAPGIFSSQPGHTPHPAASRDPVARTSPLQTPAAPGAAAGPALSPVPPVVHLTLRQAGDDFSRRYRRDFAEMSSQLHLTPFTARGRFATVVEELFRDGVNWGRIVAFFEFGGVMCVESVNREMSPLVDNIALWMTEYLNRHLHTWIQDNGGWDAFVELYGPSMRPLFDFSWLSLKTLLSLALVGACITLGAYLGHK

O=C(Nc1ccc(S(=O)(=O)Nc2ncccn2)cc1)c1ccc(-c2ccccc2)cc1 [BRD-K20733377]
IC50 [1]: ~10 µM | inhibition of Bcl-2 binding activity to a peptide ligand [2]: inhibited Bcl-2 | selectivity against late-passage Sncs compared with ABT-737 [3]: similarly selective | IC50 [4]: ~1 µM | hemolysis [5]: did not induce significant hemolysis

COc1ccc(C(=O)Nc2ccc3nc(SCC(=O)Nc4ccccc4F)sc3c2)cc1OC [compound 6]
IC50 [6]: ≥ 100 µM | inhibition of Bcl-2 binding activity to a peptide ligand [2]: inhibited Bcl-2 | hemolysis [5]: did not induce significant hemolysis

Cc1ccccc1C(=O)Nc1ccc2nc(SCC(=O)Nc3ccccc3)sc2c1 [compound 19]
inhibition of Bcl-2 binding activity to a peptide ligand [2]: inhibited Bcl-2 | selectivity against late-passage Sncs compared with ABT-737 [3]: less | hemolysis [5]: did not induce significant hemolysis

— patent publication US20260097022A1, “COMPOUNDS AND USES THEREOF” (Integrated Biosciences, Inc., priority 2023, published 2026)
